Experimental data taken from US9834564B2, “Substituted quinolines as PDE-10 inhibitors” (priority 2010, dated 2017).
Like-named read-outs stand apart in the source and are kept apart here.

Assays:
[1] = target: HEK293 cells over-expressing PDE-10A (Homo sapiens (Human), UniProt Q9Y233); test: whole cell PDE-10 assay, intracellular cGMP in HEK293 cells over-expressing PDE-10A; format: cell-based; settings: concentration elevating intracellular cyclic nucleotide 300% above baseline; HEK293 over-expressing PDE-10A, 30 min compound, 200 μM sodium nitroprusside 2 min
[2] = target: recombinant human PDE-10 enzyme (PDE-10A) (Homo sapiens (Human), UniProt Q9Y233); test: IMAP PDE Fluorescence Polarization assay, human PDE-10 inhibition (enzyme assay); format: biochemical
Method: In one embodiment, the compounds provided herein were assayed for their ability to inhibit human PDE-10A. In one embodiment, the activities of the compounds were determined using the Molecular Devices IMAP PDE Fluorescence Polarization assay using recombinant human PDE-10 enzyme expressed in a baculoviral system. Briefly, 10 μL of a compound (0.2 nM-20 μM) was added to either a 96-well half area black plate or a 384-well black plate along with 10 μL of Fluorescein-labeled cAMP/cGMP substrate as per manufacturer's instructions and 10 μL of PDE enzyme (activity 0.1 U). Following a 40-minute incubation at 37° C., 60 μL of IMAP binding reagent was added. […] The data was analyzed using Prism Software (GraphPad Inc, San Diego, Calif.).

[3] = recombinant human PDE-10, fluorescein-labeled cAMP/cGMP substrate, 40 min at 37° C.

Sequence of HEK293 cells over-expressing PDE-10A (Q9Y233 whole entry): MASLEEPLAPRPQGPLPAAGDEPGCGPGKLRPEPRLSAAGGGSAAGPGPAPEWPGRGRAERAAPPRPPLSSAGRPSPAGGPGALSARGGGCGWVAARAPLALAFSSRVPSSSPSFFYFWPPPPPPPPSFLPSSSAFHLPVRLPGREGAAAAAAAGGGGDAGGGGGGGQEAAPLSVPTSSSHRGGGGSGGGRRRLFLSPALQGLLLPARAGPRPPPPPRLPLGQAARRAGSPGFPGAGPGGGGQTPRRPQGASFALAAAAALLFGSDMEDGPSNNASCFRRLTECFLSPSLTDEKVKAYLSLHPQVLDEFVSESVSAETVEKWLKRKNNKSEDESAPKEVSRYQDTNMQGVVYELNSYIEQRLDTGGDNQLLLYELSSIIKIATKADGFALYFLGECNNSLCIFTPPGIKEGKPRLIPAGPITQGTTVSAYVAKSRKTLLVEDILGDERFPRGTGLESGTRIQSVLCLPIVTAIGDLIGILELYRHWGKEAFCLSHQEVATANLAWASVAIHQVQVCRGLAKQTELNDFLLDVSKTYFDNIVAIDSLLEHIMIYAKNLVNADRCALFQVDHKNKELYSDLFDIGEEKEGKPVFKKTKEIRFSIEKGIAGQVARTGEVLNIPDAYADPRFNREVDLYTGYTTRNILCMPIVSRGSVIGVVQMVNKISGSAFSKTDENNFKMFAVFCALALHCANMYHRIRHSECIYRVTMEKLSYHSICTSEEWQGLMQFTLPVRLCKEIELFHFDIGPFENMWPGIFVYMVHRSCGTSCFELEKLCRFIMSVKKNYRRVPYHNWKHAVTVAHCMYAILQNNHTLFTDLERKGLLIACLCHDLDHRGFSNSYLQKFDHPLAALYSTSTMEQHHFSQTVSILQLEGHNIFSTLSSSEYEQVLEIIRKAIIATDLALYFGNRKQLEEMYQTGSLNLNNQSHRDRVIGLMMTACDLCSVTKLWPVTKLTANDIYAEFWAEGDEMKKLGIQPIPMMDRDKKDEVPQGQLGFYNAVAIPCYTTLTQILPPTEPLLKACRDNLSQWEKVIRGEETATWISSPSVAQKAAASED
Sequence of recombinant human PDE-10 enzyme (PDE-10A) (Q9Y233 whole entry): as above

Row | Structure (SMILES) | PDE-10 EC300 (μM) [1] | IC50 [2, 3] [nM] | IC50 [2] [nM]
1 | Cn1cc(-c2ccccc2F)nc1CCc1ccc2ccccc2n1 [Compound 42] | ++++ (IC50 or EC300<0.5 μM ++++) | < 500 | –
2 | c1ccc2nc(CCc3nc(-c4ccsc4)c[nH]3)cnc2c1 [Compound 73] | ++++ (IC50 or EC300<0.5 μM ++++) | < 500 | –
3 | c1ccc(-c2c[nH]c(CCc3cnc4ccncc4n3)n2)cc1 [Compound 17] | +++ (0.5<IC50 or EC300<1 μM +++) | < 500 | –
4 | O=c1[nH]c(CCc2nc(-c3ccsc3)c[nH]2)nc2ccccc12 [Compound 64] | ++++ (IC50 or EC300<0.5 μM ++++) | < 500 | –
5 | c1ccc(-c2c[nH]c(OCc3cnc4ccccc4n3)n2)cc1 [Compound 123] | ++ (1<IC50 or EC300<10 μM ++) | < 500 | –
6 | Cc1nc(CCc2nc3c4cccnc4ccc3n2C)nc(C)c1Cl [Compound 208] | ++++ (IC50 or EC300<0.5 μM ++++) | < 500 | –
7 | Cn1cc(-c2ccccc2F)nc1CCc1cnc2ccccc2n1 [Compound 48] | ++++ (IC50 or EC300<0.5 μM ++++) | < 500 | –
8 | O=c1[nH]c(CCc2nc(-c3ccccc3)c[nH]2)cc2ccccc12 [Compound 34] | ++++ (IC50 or EC300<0.5 μM ++++) | < 500 | –
9 | Cn1cc(-c2ccccc2)nc1CCc1nc2ccccc2c(=O)[nH]1 [Compound 8] | ++++ (IC50 or EC300<0.5 μM ++++) | > 10000 | –
10 | O=c1[nH]c(CCc2nc(-c3ccc4c(c3)OCO4)c[nH]2)nc2ccccc12 [Compound 65] | ++ (1<IC50 or EC300<10 μM ++) | 1000 to 10000 | –
11 | Cc1ncc(C)n2nc(CCc3cnc4ccccc4n3)nc12 [Compound 134] | ++ (1<IC50 or EC300<10 μM ++) | < 500 | –
12 | Cn1cc(-c2cccc(F)c2F)nc1CCc1cnc2ccccc2n1 [Compound 50] | ++++ (IC50 or EC300<0.5 μM ++++) | < 500 | –
13 | c1ccc2c(c1)ccc1[nH]c(CCc3cnc4ccccc4n3)nc12 [Compound 103] | + (IC50 or EC300>10 μM +) | < 500 | –
14 | Fc1cccc(-c2c[nH]c(CCc3ccc4ccccc4n3)n2)c1 [Compound 70] | ++ (1<IC50 or EC300<10 μM ++) | < 500 | –
15 | Cn1cc(-c2ccsc2)nc1CCc1ccc2ccccc2n1 [Compound 40] | ++++ (IC50 or EC300<0.5 μM ++++) | < 500 | –
16 | Cn1cc(-c2ccsc2)nc1CCc1cnc2ccccc2n1 [Compound 46] | ++++ (IC50 or EC300<0.5 μM ++++) | < 500 | –
17 | Fc1cccc(-c2c[nH]c(CCc3cnc4ccccc4n3)n2)c1F [Compound 77] | ++++ (IC50 or EC300<0.5 μM ++++) | < 500 | –
18 | c1ccc2nc(CCc3nc4ccc5ncccc5n4n3)cnc2c1 [Compound 145] | + (IC50 or EC300>10 μM +) | 500 to 1000 | –
19 | Fc1ccccc1-c1c[nH]c(CCc2cnc3ccccc3n2)n1 [Compound 75] | ++++ (IC50 or EC300<0.5 μM ++++) | < 500 | –
20 | O=c1[nH]c(CCc2nc(-c3ccccc3)c[nH]2)nc2ccccc12 [Compound 3] | + (IC50 or EC300>10 μM +) | < 500 | –
21 | c1ccc(-c2c[nH]c(COc3cnc4ccccc4n3)n2)cc1 [Compound 120] | ++ (1<IC50 or EC300<10 μM ++) | < 500 | –
22 | c1ccc(-c2c[nH]c(CCc3cc4ccccc4cn3)n2)cc1 [Compound 36] | ++ (1<IC50 or EC300<10 μM ++) | < 500 | –
23 | c1ccc2nc(CCc3nc4c(ccc5ncccc54)[nH]3)cnc2c1 [Compound 102] | ++ (1<IC50 or EC300<10 μM ++) | < 500 | –
24 | C(=C\c1nc(-c2ccccc2)c[nH]1)/c1ncc2ccccc2n1 [Compound 12] | ++ (1<IC50 or EC300<10 μM ++) | – | < 500
25 | O=c1[nH]c(CCc2nc(-c3ccccc3)c[nH]2)nc2ccncc12 [Compound 5] | +++ (0.5<IC50 or EC300<1 μM +++) | < 500 | –

Row | Structure (SMILES) | PDE-10 EC300 (μM) [1] | IC50 [2, 3] [nM] | IC50 [2] [nM]
26 | COc1nc2ccccc2nc1CCc1nc2c3cccnc3ccc2n1C [Compound 144] | ++ (1<IC50 or EC300<10 μM ++) | < 500 | –
27 | Cn1c(CCc2cnc3ccccc3n2)nc2c3c(ccc21)OCCO3 [Compound 211] | ++++ (IC50 or EC300<0.5 μM ++++) | < 500 | –
28 | Cn1cc(-c2ccccc2)nc1CCc1cnc2ccccc2n1 [Compound 20] | +++ (0.5<IC50 or EC300<1 μM +++) | < 500 | –
29 | c1coc(-c2c[nH]c(CCc3cnc4ccccc4n3)n2)c1 [Compound 72] | ++++ (IC50 or EC300<0.5 μM ++++) | < 500 | –
30 | Cc1cc(C)nc(CCc2nc3c4cccnc4ccc3n2C)n1 [Compound 193] | ++++ (IC50 or EC300<0.5 μM ++++) | < 500 | –
31 | Cc1cccc(-c2c[nH]c(CCc3nc4ccccc4c(=O)[nH]3)n2)c1 [Compound 56] | ++++ (IC50 or EC300<0.5 μM ++++) | < 500 | –
32 | O=c1[nH]c(CCc2ncc(-c3ccccc3)o2)nc2ccccc12 [Compound 110] | + (IC50 or EC300>10 μM +) | > 10000 | –
33 | Cc1ccc2nc(CCc3nc4c5cccnc5ccn4c3C)ccc2n1 [Compound 202] | ++++ (IC50 or EC300<0.5 μM ++++) | < 500 | –
34 | c1ccc(-c2c[nH]c(Sc3cnc4ccccc4n3)n2)cc1 [Compound 124] | ++ (1<IC50 or EC300<10 μM ++) | < 500 | –
35 | C(=C\c1nc(-c2ccccc2)c[nH]1)/c1ccccc1 [Compound 30] | + (IC50 or EC300>10 μM +) | > 10000 | –
36 | c1ccc(CCc2nc(-c3ccccc3)c[nH]2)cc1 [Compound 31] | + (IC50 or EC300>10 μM +) | 1000 to 10000 | –
37 | Cn1cc(-c2ccco2)nc1CCc1cnc2ccccc2n1 [Compound 45] | ++++ (IC50 or EC300<0.5 μM ++++) | < 500 | –
38 | c1ccc(-n2ccc(CCc3cnc4ccccc4n3)n2)cc1 [Compound 79] | ++ (1<IC50 or EC300<10 μM ++) | 500 to 1000 | –
39 | c1ccc(-c2c[nH]c(CCc3ccc4ccccc4n3)n2)cc1 [Compound 11] | ++++ (IC50 or EC300<0.5 μM ++++) | < 500 | –
40 | Fc1cccc(-c2c[nH]c(CCc3cnc4ccccc4n3)n2)c1 [Compound 76] | ++++ (IC50 or EC300<0.5 μM ++++) | < 500 | –
41 | O=c1oc(CCc2nc(-c3ccccc3)c[nH]2)nc2ccccc12 [Compound 82] | + (IC50 or EC300>10 μM +) | 1000 to 10000 | –
42 | Cn1cc(-c2cccnc2)nc1CCc1cnc2ccccc2n1 [Compound 51] | ++ (1<IC50 or EC300<10 μM ++) | < 500 | –
43 | Cn1cc(-c2ccco2)nc1CCc1ccc2ccccc2n1 [Compound 39] | ++++ (IC50 or EC300<0.5 μM ++++) | < 500 | –
44 | O=c1[nH]c(CCc2nc(-c3cccc(F)c3)c[nH]2)nc2ccccc12 [Compound 61] | ++ (1<IC50 or EC300<10 μM ++) | < 500 | –
45 | Cc1ncc(C)n2nc(CCc3ccc4ccccc4n3)nc12 [Compound 125, 2-(2-(5,8-Dimethyl-[1,2,4]triazolo[1,5-a]pyrazin-2-yl)ethyl)quinoline] | ++++ (IC50 or EC300<0.5 μM ++++) | < 500 | –
46 | Cc1ncc(C)n2nc(CCc3ccc4ccc5ncccc5c4n3)nc12 [Compound 142] | ++++ (IC50 or EC300<0.5 μM ++++) | < 500 | –
47 | Fc1ccccc1-c1c[nH]c(CCc2ccc3ccccc3n2)n1 [Compound 69] | ++ (1<IC50 or EC300<10 μM ++) | < 500 | –
48 | Cn1cc(-c2ccccc2)nc1CCc1ccc2ccccc2n1 [Compound 19] | ++++ (IC50 or EC300<0.5 μM ++++) | < 500 | –
49 | O=c1[nH]c(CCc2nc(-c3ccncc3)c[nH]2)nc2ccccc12 [Compound 57] | + (IC50 or EC300>10 μM +) | 1000 to 10000 | –
50 | Cn1cc(-c2cccc(F)c2)nc1CCc1ccc2ccccc2n1 [Compound 43] | ++ (1<IC50 or EC300<10 μM ++) | < 500 | –
